Experimental data from patent US11034718B2, “C-3 novel triterpenone with C-17 reverse amide derivatives as HIV inhibitors” (HETERO LABS LIMITED, priority 2015, dated 2021).
Where a name gives a salt, the structure may show the parent alone. Read-outs that look alike come from different tables or passages of the source.

Tested on: HIV-1 strain 92HT599
Assay: Antiviral activity against HIV-1 strain 92HT599 in MT2 cells (p24 estimation)
Assay type: cell-based
Settings: HIV-1 92HT599, ~96 hours
Protocol: Example 77: Evaluation of Compounds Antiviral Activity Against HIV-1 Strain 92HT599 in MT2 Cells
MT2 cells were infected with HIV-1 strain 92HT599 (10 TCID 50/30000 cells). The infected cells were plated at the concentration of 30,000 cells per well in 96 well plate. Test compound was added to the micro plate in defined format with the final concentration of DMSO (vehicle) is not more than 1%. Incubation was carried out in CO2 incubator for ˜96 hours for viral infection. At the end of incubation period an aliquot from each well was taken for p24 estimation. The quantitation of p24 is an index for antiviral activity of the compound. Percent inhibition was calculated with reference to control values (vehicle controls). p24 estimation was carried out using Advance biosciences kit as per the procedure detailed by supplier.

[1] = Human immunodeficiency virus 1, 0% serum binding assay, read-out: IC50 0% serum
[2] = Human immunodeficiency virus 1, 40% serum binding assay, read-out: IC50 40% serum

| SMILES | IC50 [1] [µM] | IC50 [2] [µM] |
| --- | --- | --- |
| CC(C)C1=C2[C@H]3CC[C@@H]4[C@@]5(C)CC[C@H](OC(=O)[C@H]6C[C@@H](C(=O)O)C6(C)C)C(C)(C)[C@@H]5CC[C@@]4(C)[C@]3(C)CC[C@@]2(NC(=O)C(C)(C)NC(=O)C2(c3ccc(Cl)cc3)CC2)CC1=O [Example 2, (1R,3S)-3-((((3aR,5aR,5bR,7aR,9S,11aR,11bR,13aS)-3a-(2-(1-(4-chlorophenyl)cyclopropane-1-carboxamido)-2-methylpropanamido)-1-isopropyl-5a,5b,8,8,11a-pentamethyl-2-oxo-3,3a,4,5,5a,5b,6,7,7a,8,9,10,11,11a,11b,12,13,13a-octadecahydro-2H-cyclopenta[a]chrysen-9-yl)oxy)carbonyl)-2,2-dimethylcyclobutane-1-carboxylic acid] | 0.00301 to 0.01 | < 0.05 |
| CC(C)C1=C2[C@H]3CC[C@@H]4[C@@]5(C)CC[C@H](OC(=O)[C@H]6C[C@@H](C(=O)O)C6(C)C)C(C)(C)[C@@H]5CC[C@@]4(C)[C@]3(C)CC[C@@]2(NC(=O)C(C)(C)NC(=O)c2ccccc2)CC1=O [Example 3, (1R,3S)-3-((((3aR,5aR,5bR,7aR,9S,11aR,11bR,13aS)-3a-(2-benzamido-2-methylpropanamido)-1-isopropyl-5a,5b,8,8,11a-pentamethyl-2-oxo-3,3a,4,5,5a, 5b,6,7,7a,8,9,10,11,11a,11b,12,13,13a-octadecahydro-2H-cyclopenta[a]chrysen-9-yl)oxy)carbonyl)-2,2-dimethylcyclobutane-1-carboxylic acid] | < 0.003 | < 0.05 |
| CC(C)C1=C2[C@H]3CC[C@@H]4[C@@]5(C)CC[C@H](OC(=O)[C@H]6C[C@@H](C(=O)O)C6(C)C)C(C)(C)[C@@H]5CC[C@@]4(C)[C@]3(C)CC[C@@]2(NC(=O)C(C)(C)NC(=O)c2ccc(Cl)c(Cl)c2)CC1=O [Example 4, (1R,3S)-3-((((3aR,5aR,5bR,7aR,9S,11aR,11bR,13aS)-3a-(2-(3,4-dichlorobenzamido)-2-methylpropanamido)-1-isopropyl-5a,5b,8,8,11a-pentamethyl-2-oxo-3,3a,4,5,5a,5b,6,7,7a,8,9,10,11,11a,11b,12,13,13a-octadecahydro-2H-cyclopenta[a]chrysen-9-yl)oxy)carbonyl)-2,2-dimethylcyclobutane-1-carboxylic acid] | < 0.003 | < 0.05 |
| CC(C)C1=C2[C@H]3CC[C@@H]4[C@@]5(C)CC[C@H](OC(=O)[C@H]6C[C@@H](C(=O)O)C6(C)C)C(C)(C)[C@@H]5CC[C@@]4(C)[C@]3(C)CC[C@@]2(NC(=O)C(C)(C)NC(=O)c2ccc(N)nc2)CC1=O [Example 6, (1R,3S)-3-((((3aR,5aR,5bR,7aR,9S,11aR,11bR,13aS)-3a-(2-(6-aminonicotinamido)-2-methylpropanamido)-1-isopropyl-5a,5b,8,8,11a-pentamethyl-2-oxo-3,3a,4,5,5a,5b,6,7,7a,8,9,10,11,11a,11b,12,13,13a-octadecahydro-2H-cyclopenta[a]chrysen-9-yl)oxy)carbonyl)-2,2-dimethylcyclobutane-1-carboxylic acid] | < 0.003 | 0.05 to 0.2 |
| CC(C)C1=C2[C@H]3CC[C@@H]4[C@@]5(C)CC[C@H](OC(=O)[C@H]6C[C@@H](C(=O)O)C6(C)C)C(C)(C)[C@@H]5CC[C@@]4(C)[C@]3(C)CC[C@@]2(NC(=O)C(C)(C)NC(=O)[C@@H]2CCCN2C(=O)OC(C)(C)C)CC1=O [Example 8] | < 0.003 | < 0.05 |
| CCN1CCN(CC(=O)NC(C)(C)C(=O)N[C@@]23CC[C@]4(C)[C@H](CC[C@@H]5[C@@]6(C)CC[C@H](OC(=O)[C@H]7C[C@@H](C(=O)O)C7(C)C)C(C)(C)[C@@H]6CC[C@]54C)C2=C(C(C)C)C(=O)C3)CC1 [Example 9, (1R,3S)-3-((((3aR,5aR,5bR,7aR,9S,11aR,11bR,13aS)-3a-(2-(2-(4-ethylpiperazin-1-yl)acetamido)-2-methylpropanamido)-1-isopropyl-5a,5b,8,8,11a-pentamethyl-2-oxo-3,3a,4,5,5a,5b,6,7,7a,8,9,10,11,11a,11b,12,13,13a-octadecahydro-2H-cyclopenta[a]chrysen-9-yl)oxy)carbonyl)-2,2-dimethylcyclobutane-1-carboxylic acid] | < 0.003 | > 0.2 |
| CC(C)C1=C2[C@H]3CC[C@@H]4[C@@]5(C)CC[C@H](OC(=O)[C@H]6C[C@@H](C(=O)O)C6(C)C)C(C)(C)[C@@H]5CC[C@@]4(C)[C@]3(C)CC[C@@]2(NC(=O)C(C)(C)NC(=O)CN2CCCCC2)CC1=O [Example 10, (1R,3S)-3-((((3aR,5aR,5bR,7aR,9S,11aR,11bR,13aS)-1-isopropyl-5a,5b,8,8,11a-pentamethyl-3a-(2-methyl-2-(2-(piperidin-1-yl)acetamido)propan amido)-2-oxo-3,3a,4,5,5a,5b,6,7,7a,8,9,10,11,11a,11b,12,13,13a-octadecahydro-2H-cyclopenta[a]chrysen-9-yl)oxy)carbonyl)-2,2-dimethylcyclobutane-1-carboxylic acid] | < 0.003 | < 0.05 |
| CC(C)C1=C2[C@H]3CC[C@@H]4[C@@]5(C)CC[C@H](OC(=O)[C@H]6C[C@@H](C(=O)O)C6(C)C)C(C)(C)[C@@H]5CC[C@@]4(C)[C@]3(C)CC[C@@]2(NC(=O)C(C)(C)NC(=O)C(C)(C)N)CC1=O [Example 11, (1R,3S)-3-((((3aR,5aR,5bR,7aR,9S,11aR,11bR,13aS)-3a-(2-(2-amino-2-methylpropanamido)-2-methylpropanamido)-1-isopropyl-5a,5b,8,8,11a-pentamethyl-2-oxo-3,3a,4,5,5a,5b,6,7,7a,8,9,10,11,11a,11b,12,13,13a-octadecahydro-2H-cyclopenta[a]chrysen-9-yl)oxy)carbonyl)-2,2-dimethylcyclobutane-1-carboxylic acid hydrochloride] | < 0.003 | 0.05 to 0.2 |
| CC(C)C1=C2[C@H]3CC[C@@H]4[C@@]5(C)CC[C@H](OC(=O)[C@H]6C[C@@H](C(=O)O)C6(C)C)C(C)(C)[C@@H]5CC[C@@]4(C)[C@]3(C)CC[C@@]2(NC(=O)C(C)(C)NC(=O)c2ccc3[nH]cnc3c2)CC1=O [Example 12, (1R,3S)-3-((((3aR,5aR,5bR,7aR,9S,11aR,11bR,13aS)-3a-(2-(1H-benzo[d]imidazole-5-carboxamido)-2-methylpropanamido)-1-isopropyl-5a,5b,8,8,11a-pentamethyl-2-oxo-3,3a,4,5,5a,5b,6,7,7a,8,9,10,11,11a,11b,12,13,13a-octadecahydro-2H-cyclopenta[a]chrysen-9-yl)oxy)carbonyl)-2,2-dimethylcyclobutane-1-carboxylic acid] | < 0.003 | 0.05 to 0.2 |
| Cc1ccc(-c2nc3cc(C(=O)NC(C)(C)C(=O)N[C@@]45CC[C@]6(C)[C@H](CC[C@@H]7[C@@]8(C)CC[C@H](OC(=O)[C@H]9C[C@@H](C(=O)O)C9(C)C)C(C)(C)[C@@H]8CC[C@]76C)C4=C(C(C)C)C(=O)C5)ccc3[nH]2)cn1 [Example 13, (1R,3S)-3-((((3aR,5aR,5bR,7aR,9S,11aR,11bR,13aS)-1-isopropyl-5a,5b,8,8,11a-pentamethyl-3a-(2-methyl-2-(2-(6-methylpyridin-3-yl)-1H-benzo[d]imidazole-5-carboxamido)propanamido)-2-oxo-3,3a,4,5,5a,5b,6,7,7a,8,9,10,11,11a,11b,12,13,13a-octadecahydro-2H-cyclopenta[a]chrysen-9-yl)oxy)carbonyl)-2,2-dimethylcyclobutane-1-carboxylic acid] | < 0.003 | < 0.05 |
| CC(C)C1=C2[C@H]3CC[C@@H]4[C@@]5(C)CC[C@H](OC(=O)[C@@H]6C[C@H](C(=O)O)C6(C)C)C(C)(C)[C@@H]5CC[C@@]4(C)[C@]3(C)CC[C@@]2(NC(=O)C(C)(C)NC(=O)c2ccc(Cl)cc2)CC1=O [Example 21, (1S,3R)-3-((((3aR,5aR,5bR,7aR,9S,11aR,11bR,13aS)-3a-(2-(4-chlorobenzamido)-2-methylpropanamido)-1-isopropyl-5a,5b,8,8,11a-pentamethyl-2-oxo-3,3a,4,5,5a,5b,6,7,7a,8,9,10,11,11a,11b,12,13,13a-octadecahydro-2H-cyclopenta[a]chrysen-9-yl)oxy)carbonyl)-2,2-dimethylcyclobutane-1-carboxylic acid] | 0.00301 to 0.01 | < 0.05 |
| CC(C)C1=C2[C@H]3CC[C@@H]4[C@@]5(C)CC[C@H](OC(=O)[C@H]6C[C@@H](C(=O)O)C6(C)C)C(C)(C)[C@@H]5CC[C@@]4(C)[C@]3(C)CC[C@@]2(NC(=O)C(C)(C)NC(=O)c2ccc(F)cc2)CC1=O [Example 22, (1R,3S)-3-((((3aR,5aR,5bR,7aR,9S,11aR,11bR,13aS)-3a-(2-(4-fluorobenzamido)-2-methylpropanamido)-1-isopropyl-5a,5b,8,8,11a-pentamethyl-2-oxo-3,3a, 4,5,5a,5b,6,7,7a,8,9,10,11,11a,11b,12,13,13a-octadecahydro-2H-cyclopenta[a]chrysen-9-yl)oxy)carbonyl)-2,2-dimethylcyclobutane-1-carboxylic acid] | < 0.003 | < 0.05 |
| Cc1ccc(C(=O)NC(C)(C)C(=O)N[C@@]23CC[C@]4(C)[C@H](CC[C@@H]5[C@@]6(C)CC[C@H](OC(=O)[C@H]7C[C@@H](C(=O)O)C7(C)C)C(C)(C)[C@@H]6CC[C@]54C)C2=C(C(C)C)C(=O)C3)cc1 [Example 23, (1R,3S)-3-((((3aR,5aR,5bR,7aR,9S,11aR,11bR,13aS)-1-isopropyl-5a,5b,8,8,11a-pentamethyl-3a-(2-methyl-2-(4-methylbenzamido)propanamido)-2-oxo-3,3a,4,5,5a,5b,6,7,7a,8,9,10,11,11a,11b,12,13,13a-octadecahydro-2H-cyclopenta[a]chrysen-9-yl)oxy)carbonyl)-2,2-dimethylcyclobutane-1-carboxylic acid] | < 0.003 | < 0.05 |
